From patent US4112228A, “7-(D-α-Hydroxy-2-arylacetamido)-3-(2-carboxyalkyl-2,3-dihydro-s-tri azolo-[4,3-b]pyridazin-3-on-6-ylthiomethyl)-3-cephem-4-carboxylic acids and derivatives” (priority 1977, dated 1978)
Converted amounts (≈) assume the structure as drawn. Where two headings read alike, the source gives them in different places.

Assays:
[1] = pH of aqueous solution of the salt; type: physicochemical
[2] = test system: Sal. enteritidis; assay: MIC by Steers' agar dilution method; details: Salmonella enterica, MHA, Example 10
[3] = test system: Pr. mirabilis; assay: MIC by Steers' agar dilution method; details: Proteus mirabilis, MHA, Example 10
[4] = test system: E. coli; assay: MIC by Steers' agar dilution method; type: cell-based; details: Escherichia coli, MHA, Example 10
[5] = test system: Serr. marcescens; assay: MIC by Steers' agar dilution method; details: Serratia marcescens, MHA; Example 10
[6] = test system: Shig. sonnei; assay: MIC by Steers' agar dilution method; type: cell-based; details: Shigella sonnei, MHA; Example 10
[7] = test system: Pr. vulgaris; assay: MIC by Steers' agar dilution method; details: Proteus vulgaris, MHA, Example 10
[8] = test system: Shig. dysenteriae; assay: MIC by Steers' agar dilution method; details: Shigella dysenteriae, MHA; Example 10
[9] = test system: B. anthracis; assay: microbe, parasite or virus in culture; type: cell-based; details: Bacillus anthracis, MHA; Example 10
[10] = test system: Pr. rettgeri; assay: MIC by Steers' agar dilution method; details: Providencia rettgeri, MHA; Example 10
[11] = test system: Sal. typhosa; assay: MIC by Steers' agar dilution method; type: cell-based; details: MHA; Example 10
[12] = test system: Shig. flexneri; assay: MIC by Steers' agar dilution method; type: cell-based; details: Shigella flexneri, MHA; Example 10
[13] = test system: St. faecalis; assay: MIC by Steers' agar dilution method; details: Enterococcus faecalis, MHA; Example 10
[14] = test system: Ps. aeruginosa; assay: MIC by Steers' agar dilution method; details: Pseudomonas aeruginosa, MHA, Example 10
[15] = test system: Enterob. cloacae; assay: MIC by Steers' agar dilution method; details: MHA; Example 10
[16] = test system: Kl. pneumoniae; assay: MIC by Steers' agar dilution method; type: cell-based; details: Klebsiella pneumoniae, MHA, Example 10
[17] = test system: S. aureus; assay: MIC by Steers' agar dilution method; type: cell-based; details: Staphylococcus aureus, MHA, Example 10
[18] = test system: Pr. morganii; assay: MIC by Steers' agar dilution method; details: Morganella morganii, MHA, Example 10
[19] = Nephrotoxicity test in rabbits; details: comparative test

## O=C(O)Cn1nc2ccc(SCC3=C(C(=O)[O-])N4C(=O)C(NC(=O)[C@H](O)c5ccccc5)[C@H]4SC3)nn2c1=O.[Na+] (stereo partly drawn) [Sodium Salt of BB-S488, sodium 7-(D-mandelamido)-3-(2-carboxymethyl-2,3-dihydro-s-triazolo[4,3-b]pyridazin-3-on-6-ylthiomethyl)-3-cephem-4-carboxylate]
[1]; 10% aqueous solution
  pH of the aqueous solution: 3.6

## O=C(O)Cn1nc2ccc(SCC3=C(C(=O)O)N4C(=O)C(NC(=O)[C@H](O)c5ccccc5)C4SC3)nn2c1=O (stereo partly drawn) [Example 6, disodium 7-(D-mandelamido)-3-(2-carboxymethyl-2,3-dihydro-s-triazolo[4,3-b]pyridazin-3-on-6-ylthiomethyl)-3-cephem-4-carboxylylate]
[1]; 5% aqueous solution
  pH of the aqueous solution: 5.4

## O=C(O)CCn1nc2ccc(SCC3=C(C(=O)O)N4C(=O)C(NC(=O)[C@H](O)c5ccccc5)[C@H]4SC3)nn2c1=O (single isomer, unassigned) [BB-S 527, 7-[D(-)-Mandelamido]-3-[2-(2-carboxyethyl)-2,3-dihydro-s-triazolo-[4,3-b]pyridazin-3-on-6-ylthiomethyl]-3-cephem-4-carboxylic acid]
[2]
  MIC: 0.05 µg/mL (≈ 0.0852 µM)
[3]; strain not given (1st of 2)
  MIC: 0.2 µg/mL (≈ 0.341 µM)
[3]; strain not named (2nd of 2)
  MIC: 0.1 µg/mL (≈ 0.17 µM)
[4]; ATCC8739, ATCC 8739
  MIC: 12.5 µg/mL (≈ 21.3 µM)
[4]; BX-1373, read-out: MIC
  MIC: 6.3 µg/mL (≈ 10.7 µM)
[4]; Juhl, read-out: MIC
  MIC: 0.4 µg/mL (≈ 0.682 µM)
[4]; NIHJ, read-out: MIC
  MIC: 0.4 µg/mL (≈ 0.682 µM)
[4]; strain not named (1st of 3), read-out: MIC
  MIC: 0.1 µg/mL (≈ 0.17 µM)
[4]; strain not named (2nd of 3), read-out: MIC
  MIC: 0.1 µg/mL (≈ 0.17 µM)
[4]; strain not named (3rd of 3), read-out: MIC
  MIC: 6.3 µg/mL (≈ 10.7 µM)
[5]
  MIC: > 100 µg/mL
[6]
  MIC: 0.1 µg/mL (≈ 0.17 µM)
[7]; strain not given (1st of 2)
  MIC: 0.1 µg/mL (≈ 0.17 µM)
[7]; strain not named (2nd of 2)
  MIC: 12.5 µg/mL (≈ 21.3 µM)
[8]
  MIC: 0.025 µg/mL (≈ 0.0426 µM)
[9]
  MIC: 0.4 µg/mL (≈ 0.682 µM)
[10]
  MIC: 0.2 µg/mL (≈ 0.341 µM)
[11]
  MIC: 0.1 µg/mL (≈ 0.17 µM)
[12]
  MIC: 50 µg/mL (≈ 85.2 µM)
[13]
  MIC: > 100 µg/mL
[14]; strain not given (1st of 2)
  MIC: > 100 µg/mL
[14]; strain not named (2nd of 2)
  MIC: > 100 µg/mL
[15]
  MIC: 6.3 µg/mL (≈ 10.7 µM)
[16]; strain not named (1st of 4)
  MIC: 6.3 µg/mL (≈ 10.7 µM)
[16]; strain not named (2nd of 4)
  MIC: 0.2 µg/mL (≈ 0.341 µM)
[16]; strain not named (3rd of 4)
  MIC: 0.8 µg/mL (≈ 1.36 µM)
[16]; strain not named (4th of 4)
  MIC: 0.4 µg/mL (≈ 0.682 µM)
[17]; BX-1633
  MIC: 3.1 µg/mL (≈ 5.28 µM)
[17]; Smith
  MIC: 1.6 µg/mL (≈ 2.73 µM)
[17]; strain not named
  MIC: 0.4 µg/mL (≈ 0.682 µM)
[18]; strain not given (1st of 2)
  MIC: > 100 µg/mL
[18]; strain not named (2nd of 2)
  MIC: 0.4 µg/mL (≈ 0.682 µM)

## O=C(Cc1cccs1)N[C@@H]1C(=O)N2C(C(=O)[O-])=C(C[n+]3ccccc3)CS[C@H]12 [cephaloridine, reference compound]
[19]
  Nephrotoxicity: severe nephrotoxicity
